Source: patent US9555038B2, “Heterocycle-substituted tetracyclic compounds and methods of use thereof for the treatment of viral diseases” (Merck Sharp & Dohme Corp., priority 2013, dated 2017)
Read-outs that look alike come from different tables or passages of the source.

Legend:
HCV replicon 1B = assay: Cell-based HCV Replicon Assay B, replicon 1B
Summary of the method: (§1)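 EC50 defined as the drug concentration giving a CT increase of 1 above projected baseline, from real-time RT-PCR of replicon RNA using genotype-specific primers and probes. Cells were seeded in 5% FBS, dosed after 24 h and incubated 3 days before lysis.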

HCV replicon 1AQ30D = assay: Cell-based HCV Replicon Assay B, replicon 1AQ30D
Summary of the method: as §1

HCV replicon 2B = assay: Cell-based HCV Replicon Assay A, replicon 2B
Summary of the method: (§2)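 Readout: replicon RNA by real-time RT-PCR, normalised to co-amplified cyclophilin and quantified against replicon total-RNA standard curves. Cells (2000/well) treated 3 days in medium with 5% FBS and 0.5% DMSO, compound in 10 serial dilutions from starting concentrations of 333.3 nM to 1.667 nM.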

HCV replicon 1A = assay: Cell-based HCV Replicon Assay A, replicon 1A
Summary of the method: as §2

HCV replicon 1AY93H = assay: Cell-based HCV Replicon Assay A, replicon 1AY93H
Summary of the method: as §2

[1] = read-out: 1A Q30D IC50, replicon 1AQ30D
[2] = read-out: 1A Y93H IC50, replicon 1AY93H
[3] = Hepatitis C virus, read-out: 1A Q30D IC50 (nM), replicon 1AQ30D

| SMILES | IC50 (HCV replicon 1B) [pM] | IC50 (HCV replicon 1AQ30D; [1]) [nM] | IC50 (HCV replicon 2B; read-out: 2B IC50, replicon 2B) [nM] | IC50 (HCV replicon 1A) [pM] | IC50 (HCV replicon 1AY93H; [2]) [nM] | IC50 (HCV replicon 1B; Hepatitis C virus) [pM] | IC50 (HCV replicon 1AQ30D; [3]) [nM] | IC50 (HCV replicon 1A; Hepatitis C virus) [pM] | IC50 (HCV replicon 2B; Hepatitis C virus, read-out: 2B IC50 (nM), replicon 2B) [nM] | IC50 (HCV replicon 1AY93H; Hepatitis C virus, read-out: 1A Y93H IC50 (nM), replicon 1AY93H) [nM] |
| --- | --- | --- | --- | --- | --- | --- | --- | --- | --- | --- |
| CCCc1ncc(C2Oc3cc(-c4cnc([C@@H]5CCCN5C(=O)[C@@H](NC(=O)OC)C(C)C)[nH]4)cc(F)c3-c3cc4cc(-c5cnc([C@@H]6C[C@H]7C[C@H]7N6C(=O)C(NC(=O)OC)C6C[C@@H](C)O[C@@H](C)C6)[nH]5)ccc4n32)s1 (single isomer, unassigned) [Compound 109] | 4 | 0.176 | 0.069 | 3.4 | 0.0303 | – | – | – | – | – |
| CCCc1ncc(C2Oc3cc(-c4cnc([C@@H]5CCCN5C(=O)[C@@H](NC(=O)OC)C(C)C)[nH]4)cc(F)c3-c3cc4cc(-c5cnc([C@@H]6C[C@H]7C[C@H]7N6C(=O)[C@@H](NC(=O)OC)C(C)C)[nH]5)ccc4n32)s1 (single isomer, unassigned) [Compound 90] | – | – | 0.018 | – | 0.0038 | 3 | 0.09 | 2.5 | – | – |
| COC(=O)NC(C(=O)N1[C@@H]2C[C@@H]2C[C@H]1c1ncc(-c2ccc3c(c2)cc2n3C(c3cnc(C4(C)CC4)s3)Oc3cc(-c4cnc([C@@H]5CCCN5C(=O)[C@@H](NC(=O)OC)C(C)C)[nH]4)cc(F)c3-2)[nH]1)C1C[C@@H](C)O[C@@H](C)C1 (single isomer, unassigned) [Compound 464] | 3.4 | 1.23 | 0.282 | 2.8 | 0.197 | – | – | – | – | – |
| COC(=O)N[C@H](C(=O)N1CCC[C@H]1c1ncc(-c2cc(F)c3c(c2)OC(c2ncc(-c4ccc(F)cc4)s2)n2c-3cc3cc(-c4cnc([C@@H]5CCCN5C(=O)[C@@H](NC(=O)OC)C(C)C)[nH]4)ccc32)[nH]1)C(C)C (single isomer, unassigned) [Compound 33] | – | 1.67 | 0.746 | – | 1.18 | 1 | – | 1.7 | – | – |
| CCc1ncc(C2Oc3cc(-c4cnc([C@@H]5CCCN5C(=O)[C@@H](NC(=O)OC)C(C)C)[nH]4)cc(F)c3-c3cc4cc(-c5cnc([C@@H]6C[C@H]7C[C@H]7N6C(=O)C(NC(=O)OC)C6CCOC(C)(C)C6)[nH]5)ccc4n32)s1 (single isomer, unassigned) [Compound 92] | – | 0.064 | 0.005 | – | 0.0045 | 6 | – | 3.7 | – | – |
| COC(=O)N[C@H](C(=O)N1CCC[C@H]1c1ncc(-c2cc(F)c3c(c2)OC(c2cnc(Nc4ccc(F)cc4)s2)n2c-3cc3cc(-c4cnc([C@@H]5CCCN5C(=O)[C@@H](NC(=O)OC)C(C)C)[nH]4)ccc32)[nH]1)C(C)C (single isomer, unassigned) [Compound 535] | 3.2 | 0.172 | 0.012 | 3.1 | 0.084 | – | – | – | – | – |
| COC(=O)NC(C(=O)N1CCC[C@H]1c1ncc(-c2ccc3c(c2)cc2n3C(c3cnc(C4(C)CCCC4)s3)Oc3cc(-c4cnc([C@@H]5CCCN5C(=O)[C@@H](NC(=O)OC)C(C)C)[nH]4)cc(F)c3-2)[nH]1)C1CCOC(C)(C)C1 (single isomer, unassigned) [Compound 472] | 3.6 | 2.7 | 0.15 | 2.1 | 0.555 | – | – | – | – | – |
| COC(=O)NC(C(=O)N1CCC[C@H]1c1ncc(-c2ccc3c(c2)cc2n3C(c3cnc(C4(C)CCCC4)s3)Oc3cc(-c4cnc([C@@H]5CCCN5C(=O)[C@@H](NC(=O)OC)C(C)C)[nH]4)cc(F)c3-2)[nH]1)C1CCOC(C)(C)C1 (single isomer, unassigned) [Compound 446] | – | 0.034 | 0.005 | – | 0.004 | 3.4 | – | 1.8 | – | – |
| COC(=O)N[C@H](C(=O)N1CCC[C@H]1c1ncc(-c2cc(C)c3c(c2)OC(c2ncc(C4CC4)s2)n2c-3cc3cc(-c4cnc([C@@H]5CCCN5C(=O)[C@@H](NC(=O)OC)C5C[C@@H](C)O[C@@H](C)C5)[nH]4)ccc32)[nH]1)C(C)C (single isomer, unassigned) [Compound 47] | – | 2.19 | 0.058 | – | 1.12 | 3 | – | 2 | – | – |
| COC(=O)N[C@H](C(=O)N1CCC[C@H]1c1ncc(-c2cc(F)c3c(c2)OC(c2cnc(-c4ccncc4)s2)n2c-3cc3cc(-c4cnc([C@@H]5CCCN5C(=O)[C@@H](NC(=O)OC)C(C)C)[nH]4)ccc32)[nH]1)C(C)C (single isomer, unassigned) [Compound 409] | – | – | – | – | – | 7 | 5.1 | 10.8 | 1.28 | 0.577 |
| COC(=O)NC(C(=O)N1[C@@H]2C[C@@H]2C[C@H]1c1ncc(-c2ccc3c(c2)cc2n3C(c3cnc(C4CC4)s3)Oc3cc(-c4cnc([C@@H]5CCCN5C(=O)[C@@H](NC(=O)OC)C(C)C)[nH]4)cc(F)c3-2)[nH]1)C1C[C@@H](C)O[C@@H](C)C1 (single isomer, unassigned) [Compound 310] | – | 0.806 | 0.12 | – | 0.0954 | 3 | – | 2.6 | – | – |
| COC(=O)N[C@H](C(=O)N1CCC[C@H]1c1ncc(-c2cc(F)c3c(c2)OC(c2cnc(C4(C)CC4)s2)n2c-3cc3cc(-c4cnc([C@@H]5C[C@H]6C[C@H]6N5C(=O)[C@@H](NC(=O)OC)C(C)C)[nH]4)ccc32)[nH]1)C(C)C (single isomer, unassigned) [Compound 453] | 2 | 2.14 | 0.65 | 2.3 | 0.21 | – | – | – | – | – |
| CCCc1ncc(C2Oc3cc(-c4cnc([C@@H]5CCCN5C(=O)[C@@H](NC(=O)OC)C(C)C)[nH]4)cc(F)c3-c3cc4cc(-c5cnc([C@@H]6CCCN6C(=O)[C@@H](NC(=O)OC)C(C)C)[nH]5)ccc4n32)s1 (stereo partly drawn) [Compound 15] | 3 | – | 0.025 | – | 0.0059 | – | 0.118 | 2.9 | – | – |
| CCc1ncc(C2Oc3cc(-c4cnc([C@@H]5CCCN5C(=O)[C@@H](NC(=O)OC)C(C)C)[nH]4)cc(F)c3-c3cc4cc(-c5cnc([C@@H]6CCCN6C(=O)C(NC(=O)OC)C6CCOC(C)(C)C6)[nH]5)ccc4n32)s1 (single isomer, unassigned) [Compound 40] | – | – | 0.006 | 3.5 | 0.0039 | 3 | 0.03 | – | – | – |
| COC(=O)NC(C(=O)N1CCC[C@H]1c1ncc(-c2ccc3c(c2)cc2n3C(c3cnc(C4(C)CC4)s3)Oc3cc(-c4cnc([C@@H]5CCCN5C(=O)[C@@H](NC(=O)OC)C(C)C)[nH]4)cc(F)c3-2)[nH]1)C1CCOC(C)(C)C1 (single isomer, unassigned) [Compound 457] | – | 0.07 | 0.005 | – | 0.007 | 3.6 | – | 3.3 | – | – |
| COC(=O)NC(C(=O)N1CCC[C@H]1c1ncc(-c2ccc3c(c2)cc2n3C(c3nc(C(F)(F)F)cs3)Oc3cc(-c4cnc([C@@H]5CCCN5C(=O)[C@@H](NC(=O)OC)C(C)C)[nH]4)cc(F)c3-2)[nH]1)C1C[C@@H](C)O[C@@H](C)C1 (single isomer, unassigned) [Compound 76] | – | – | 0.141 | 2.7 | 0.0322 | 3 | 0.422 | – | – | – |
| CCCc1ncc(C2Oc3cc(-c4cnc([C@@H]5CCCN5C(=O)[C@@H](NC(=O)OC)C(C)C)[nH]4)cc(F)c3-c3cc4cc(-c5cnc([C@@H]6C[C@H]7C[C@H]7N6C(=O)C(NC(=O)OC)C6CCOC(C)(C)C6)[nH]5)ccc4n32)s1 (single isomer, unassigned) [Compound 107] | 4 | 0.233 | 0.017 | 2.6 | 0.0292 | – | – | – | – | – |
| COC(=O)N[C@H](C(=O)N1CCC[C@H]1c1ncc(-c2cc(C)c3c(c2)OC(c2ncc(C4CC4)s2)n2c-3cc3cc(-c4cnc([C@@H]5CCCN5C(=O)[C@@H](NC(=O)OC)C5C[C@@H](C)O[C@@H](C)C5)[nH]4)ccc32)[nH]1)C(C)C (single isomer, unassigned) [Compound 48] | 2 | 0.31 | 0.016 | 1.5 | 0.0538 | – | – | – | – | – |
| COC(=O)NC(C(=O)N1[C@@H]2C[C@@H]2C[C@H]1c1ncc(-c2ccc3c(c2)cc2n3C(c3cnc(C4(C)CC4)s3)Oc3cc(-c4cnc([C@@H]5CCCN5C(=O)[C@@H](NC(=O)OC)C(C)C)[nH]4)cc(F)c3-2)[nH]1)C1CCOC(C)(C)C1 (single isomer, unassigned) [Compound 465] | – | 0.022 | 0.005 | – | 0.002 | 3.9 | – | 2.7 | – | – |
| CCc1ncc(C2Oc3cc(-c4cnc([C@@H]5CCCN5C(=O)[C@@H](NC(=O)OC)C(C)C)[nH]4)cc(F)c3-c3cc4cc(-c5cnc([C@@H]6CCCN6C(=O)C(NC(=O)OC)C6C[C@@H](C)O[C@@H](C)C6)[nH]5)ccc4n32)s1 (single isomer, unassigned) [Compound 36] | – | – | 0.005 | 2.5 | 0.004 | 3 | 0.038 | – | – | – |
| COC(=O)N[C@H](C(=O)N1CCC[C@H]1c1ncc(-c2cc(C)c3c(c2)OC(c2cnc(C4CC4)s2)n2c-3cc3cc(-c4cnc([C@@H]5C[C@H]6C[C@H]6N5C(=O)[C@@H](NC(=O)OC)C(C)(C)F)[nH]4)ccc32)[nH]1)C(C)C (single isomer, unassigned) [Compound 208] | – | – | 0.011 | – | 0.0243 | 3 | 0.268 | 2.8 | – | – |
